Test results reported in publication PMC11013284, “Chemoselective Synthesis and Anti-Kinetoplastidal Properties of 2,6-Diaryl-4H-tetrahydro-thiopyran-4-one S-Oxides: Their Interplay in a Cascade of Redox Reactions from Diarylideneacetones” (Molecules, 2024).
Where two headings read alike, the source gives them in different places.

How the values were obtained:
[1] = system: Trypanosoma brucei brucei trypomastigotes, suramin-sensitive strain (Squib 427); test: T. b. brucei growth/viability assay (resazurin); format: cell-based; details: 3 days
Method: After 3 days, parasite growth was assessed fluorimetrically following the addition of resazurin. After 24 h at 37 °C, fluorescence was measured (λex = 550 nm, λem = 590 nm). The results were expressed as a percentage reduction in parasite growth/viability compared to control wells, and a 50% inhibitory concentration (IC50) was calculated.

[2] = system: L. infantum (MHOM/MA(BE)/67) amastigotes in primary peritoneal mouse macrophages; test: L. infantum intramacrophage amastigote assay (microscopic burden); format: cell-based, Leishmania infantum; details: 5 days, mouse macrophages as host
Method: L. infantum (MHOM/MA(BE)/67 strain) amastigote were incubated for 5 days in 96-well plates with five concentrations of compound (64, 16, 4, 1, and 0.25 μM). Primary peritoneal mouse macrophages were used as host cells. Parasite burdens (i.e., the number of amastigotes per macrophage) were microscopically assessed. The results were expressed as a percentage reduction in parasite burden compared to untreated control wells, and an IC50 was calculated.

[3] = system: Trypanosoma cruzi (Tulahuen CL2 β-galactosidase) amastigotes in hMRC-5SV2 cells; test: T. cruzi intracellular amastigote assay (β-galactosidase/CPRG); format: cell-based; details: intracellular amastigotes, 7 days; for IC50: read-out: IC50 T. cruzi intramacrophage amastigotes (converted)
Method: A nifurtimox-sensitive strain (Tulahuen CL2 β-galactosidase) in human lung fibroblast hMRC-5SV2 cells was incubated for 7 days in 96-well plates with five concentrations of compound (64, 16, 4, 1, and 0.25 μM). The parasitic burden was evaluated through the activity of the enzyme β-galactosidase on a specific chlorophenol red ß-D-galactopyranoside (CPRG) substrate. Live parasites converted the yellow-orange CPRG substrate into the red chromophore chlorophenol red, yielding a dark-red solution, which could be quantitatively measured at 540 nm after 4 h of incubation at 37 °C. The results were expressed as a percentage reduction in parasite growth/viability compared to control wells, and an IC50 was calculated.

[4] = system: human diploid embryonic lung fibroblast hMRC-5SV2 cells; test: in vitro
Method: (§1) The cytotoxicity of compounds was evaluated toward human diploid embryonic lung fibroblast hMRC-5SV2 cells, derived from fetal lung tissue and first described in 1970. hMRC-5SV2 cells were cultured in 96-well plates with five concentrations of the compound (64, 16, 4, 1, and 0.25 μM). After 3 days of incubation, the cell viability was assessed fluorimetrically after the addition of resazurin, and fluorescence was measured (λex = 550 nm, λem = 590 nm). The results were expressed as a percentage reduction in cell growth/viability compared to control wells, and a 50% cytotoxic concentration (CC50) was calculated. The reference cytotoxic drugs were tamoxifen or ivermectin. Additionally, toxicity toward mouse macrophages was qualitatively observed. Three concentrations were included (64, 16, and 4 µM), and the range of toxicity was ranked from the least toxic to the most toxic compound.

[5] = system: WT LV9 L. donovani intramacrophage amastigotes; test: L. donovani intramacrophage amastigote assay; format: cell-based, Leishmania donovani; details: WT LV9, ± SD in Tables S5/S6, read-out: IC50 L. donovani intramacrophage amastigotes
[6] = in vitro; details: human, CC50 hMRC-5 (cytotoxicity)
Method: as §1

[7] = Trypanosoma cruzi, TULAHUEN, 168 h

Compound | IC50 [1] | IC50 [2] | IC50 [3] | CC50 [4] | also measured
CN(C)c1ccc(/C=C/C(=O)/C=C/c2ccc(F)cn2)cc1 [1’q] | 13300 nM | 32.5 µM | > 64 µM | 32.2 µM | –
COc1cc([C@@H]2CC(=O)C[C@H](c3cc(OC)c(C)cc3OC)S2)c(OC)cc1C [2’o] | 32500 nM | 5.1 µM | 37.2 µM | > 64 µM | –
COc1cc(Br)c(OC)c([C@@H]2CC(=O)C[C@H](c3cc(OC)cc(Br)c3OC)S2)c1 [2’q] | 32200 nM | 8.6 µM | 17.1 µM | > 64 µM | –
O=C1C[C@@H](c2ccccc2Cl)S[C@@H](c2ccccc2Cl)C1 [2’e] | 37600 nM | > 64 µM | 35 µM | > 64 µM | –
N#Cc1ccc(/C=C/C(=O)/C=C/c2ccccc2)cc1 [1’l] | ≤ 200 nM | 7 µM | 3.3 µM | 38.7 µM | –
CC1CS(=O)(=O)CCN1/N=C/c1ccc([N+](=O)[O-])o1 (centres unmarked) [Nifurtimox, nifurtimox, reference compound] | – | – | – | – | IC50 [3, 7]: 0.845 ± 0.2 µM
COc1ccc(C2CC(=O)CC(c3ccc(OC)cc3)[S+]2[O-])cc1 (stereo not drawn) [3′d, (anti)- and (syn)-cis-2,6-Di-(p-anisyl)-4H-tetrahydro-thiopyran-4-one 1-oxides] | 2300 nM | ≥ 64 µM | ≥ 64 µM | – | IC50 L. infantum intramacrophage amastigotes [2]: inactive; IC50 [5]: > 100 µM; IC50 T. cruzi intramacrophage amastigotes [3]: inactive; CC50 ([4]; human, 3 days): ≥ 64 µM
O=C(/C=C/c1ccccc1)/C=C/c1ccccn1 [1’n] | ≤ 200 nM | 1.3 µM | 0.5 µM | 1.5 µM | –
O=C(/C=C/c1ccccc1)/C=C/c1ncccn1 [1’r] | ≤ 200 nM | 0.4 µM | ≤ 0.2 µM | 1.6 µM | –
CCCCCCCCCCCCCCCCOP(=O)([O-])OCC[N+](C)(C)C [miltefosine, Hexadecyl-Phosphoryl-Choline, reference compound] | – | – | – | – | IC50 ([5]; Leishmania donovani): 19.1 ± 0.1 µM
O=C(/C=C/c1ccccc1)/C=C/c1ccc(C(F)(F)F)cc1 [1’b] | 2200 nM | > 64 µM | 33.8 µM | > 64 µM | –
Cc1ccc(C(=O)Nc2ccc(S(=O)(=O)O)c3cc(S(=O)(=O)O)cc(S(=O)(=O)O)c23)cc1NC(=O)c1cccc(NC(=O)Nc2cccc(C(=O)Nc3cc(C(=O)Nc4ccc(S(=O)(=O)O)c5cc(S(=O)(=O)O)cc(S(=O)(=O)O)c45)ccc3C)c2)c1 [Suramin, suramin, reference compound] | 30 nM | – | – | – | –
CC[C@H](C)[C@H]1O[C@]2(CC[C@@H]1C)C[C@@H]1C[C@@H](C/C=C(\C)[C@@H](O[C@H]3C[C@H](OC)[C@@H](O[C@H]4C[C@H](OC)[C@@H](O)[C@H](C)O4)[C@H](C)O3)[C@@H](C)/C=C/C=C3\CO[C@@H]4[C@H](O)C(C)=C[C@@H](C(=O)O1)[C@]34O)O2 [ivermectine, ivermectin, reference compound] | – | – | – | – | CC50 ([4]; read-out: CC50 hMRC-5 (cytotoxicity), human hMRC-5SV2 fibroblasts, 3 days): 3.5 µM
CC/C(=C(\c1ccccc1)c1ccc(OCCN(C)C)cc1)c1ccccc1 [Tamoxifen, tamoxifen, reference compound] | – | – | – | – | CC50 at 3 days [6]: 9.12 µM
O=C(/C=C/c1ccccc1)/C=C/c1ccncc1 [1’o] | ≤ 200 nM | 0.5 µM | ≤ 0.2 µM | 2 µM | –
C=CCOc1ccc(/C=C/C(=O)/C=C/c2ccc(OCC=C)c(OC)c2)cc1OC [1k] | 6800 nM | > 64 µM | 36.9 µM | > 64 µM | –
O=C(Cn1ccnc1[N+](=O)[O-])NCc1ccccc1 [benznidazole, reference compound] | – | – | – | – | IC50 [3, 7]: 1.93 µM
O=C1C[C@@H](c2ccc(F)cc2)S[C@@H](c2ccc(F)cc2)C1 [2’g] | 2100 nM | 2.1 µM | 1.4 µM | 6.4 µM | –
COc1cc(/C=C/C(=O)/C=C/c2ccc(O)c(OC)c2)ccc1O [1i] | ≤ 300 nM | ≥ 32 µM | 1 µM | 1.1 µM | –
CN(C)c1ccc(/C=C/C(=O)/C=C/c2ccc(C(F)(F)F)cc2)cc1 [1’c] | 9200 nM | 8 µM | 31.7 µM | > 64 µM | –
